“Also recorded” adds a separate entry of the source.
Key:
Striga = experiment: Trial in Burkina Faso, wooden boxes with artificially infested soil and pearl millet host; format: in vivo; details: 1×1 m^2 boxes, artificially infested soil, pearl millet host
Protocol: Very recently, the activity of MP1 was also evaluated in a trial conducted in Burkina Faso, in which 1×1 m^2 wooden boxes were used which were filled with artificially infested soil and pearl millet as a host.

P. ramosa seeds = experiment: P. ramosa seed germination bioassay; format: in vivo; details: 1.0 μM
Protocol: Parasitic weed seeds (S. hermonthica and P. ramosa) germination activity was recorded as described previously (Jamil et al., 2012). Six pre-conditioned seed discs were placed in a 90 mm petri-dish containing a filter paper ring wetted with 0.9 ml sterile MilliQ water. […] GR24 solutions with equal concentrations and sterile MilliQ water were included as a positive and negative control, respectively. After application, seeds were incubated at 30° C./25° C. in the dark for two days. Germination (seeds with radical emerging through seed coat) was scored under a binocular microscope, and germination rate (%) was calculated.

COC(=O)/C(=C/OC1C=C(C)C(=O)O1)c1ccc([N+](=O)[O-])cc1 (racemic) [MP1, (E)-methyl 3-(4-methyl-5-oxo-2,5-dihydrofuran-2-yloxy)-2-(4-nitrophenyl)acrylate]
Germination activity compared with GR24 (Striga): significantly higher germination activity than GR24 | P. ramosa seed germination activity (P. ramosa seeds): much higher activity; also recorded: quite similar to that of GR24
